PMC10269895 (Microbiology Spectrum, 2023)
Converted amounts (≈) assume the structure as drawn. Like-named read-outs stand apart in the source and are kept apart here.

Key:
E. coli MG1655 = system: E. coli MG1655
Method: (§1) MICs were determined by adapting the protocol from CLSI guidelines (Table 1; [15]). Briefly, from an overnight preculture, 49.2 μL of an inoculum of 5 × 10^5 CFU/mL in MH broth or DMEM was dispensed into 384-well plates, and 0.8 μL of compounds solubilized in dimethyl sulfoxide (DMSO) and serially diluted was added to the bacterial cultures. […] MICs were determined by measurement of the optical density at 600 nm (OD600). The experiments were performed in duplicate. Commercially available strains were obtained from the American Type Culture Collection (ATCC), the German Collection of Microorganisms and Cell Cultures (DSMZ), and the Biological Resource Center of Institut Pasteur (CRBIP).

E. cloacae CIP 105879 = system: E. cloacae CIP 105879
Method: as §1

P. mirabilis DSM4479 = system: P. mirabilis DSM4479
Method: as §1

E. coli ATCC BAA-2469 = conditions: NDM-1 strain
Method: as §1

C. freundii ATCC 8090 = system: C. freundii ATCC 8090
Method: as §1

E. coli DSM 46345 = system: E. coli DSM 46345
Method: as §1

E. coli ATCC BAA-2471 = conditions: NDM-1 strain
Method: as §1

[1] = system: K. pneumoniae ATCC BAA-2342; conditions: KPC strain
Method: as §1

E. cloacae ATCC BAA-2468 = conditions: NDM-1 strain
Method: as §1

[2] = system: K. pneumoniae ATCC BAA-2470; conditions: NDM-1 strain
Method: as §1

P. stuartii ATCC 29851 = system: P. stuartii ATCC 29851
Method: as §1

[3] = system: PDE3A, acetylcholinesterase, MAO-A, Na+/K+-ATPase; conditions: 0.01 mM
Plasma stability = format: in vitro ADME; conditions: for Degradation: after 4 h
Method: For plasma clearance, peptides were dissolved as 1 mM stock solutions in sterile deionized water and incubated at 37°C in 500 μL plasma derived from different species (human, mouse, and rat) at a final concentration of 5 μM. At different time points (0, 1, and 4 h), 100-μL samples were transferred to 500 μL ethanol containing 0.5% (vol/vol) ammonia, and plasma proteins were precipitated for 20 min at 1,735 × g. Each 10-μL supernatant sample was separated on a Triart C18 column (1.9 μm, 20 by 2 mm; YMC, Kyoto, Japan) with an ascending acetonitrile gradient in water (supplemented with 0.1% formic acid), at a flow rate of 500 μL/min. Samples were analyzed in triplicate by LC-MS/MS as above, and the stability of the parent peptides was evaluated based on the comparison of blank samples with incubated samples.

HepG2 cells = assay: Cytotoxicity (CellTiter-Glo ATP and neutral red uptake); format: cell-based, human; conditions: 24 h; highest concentration with cell viability of >80%
Method: The toxicity of GE81112A toward human hepatocellular carcinoma HepG2 HB-8065 (ATCC) cells and freshly isolated primary Sprague-Dawley rat hepatocytes (Charles River) was assessed by using the CellTiter-Glo ATP-monitoring kit (Promega) and by quantifying the ability to store the dye neutral red (neutral red uptake [NRU] solution; Sigma-Aldrich, St. Louis, MO, USA). The assay was conducted in 96-well microtiter plates in a test volume of 200 μL. GE81112A was tested in an 8-fold 1:2 dilution series with a final concentration range of […]. HepG2 cells or primary hepatocytes were maintained at 37°C in 5% CO2 in DMEM-F-12 medium containing 1% nonessential amino acids, 1% sodium pyruvate, and 10% heat-inactivated FCS. Prior to each test, 100 μL of culture medium was added to each well (each containing about 20,000 cells), and the plates were incubated for 16 h as described above. GE81112A was diluted in culture medium to obtain appropriate concentrations and was added to the wells as six replicates. […] After incubation for 24 h as described above, cell viability was calculated either by cell lysis and subsequent luminometric quantification of the ATP concentration in each sample or by measurement of the amount of neutral red taken up by the cells. NRU was measured at 540 nm (Tecan Genios Pro) after 3 h of incubation with NRU solution and subsequent cell lysis. […]

[4] = In vivo tolerability study in uninfected mice; design: species or system Swiss mice; conditions: 30 mg/kg single i.v. bolus in NaCl (0.9%)
Method: We first performed a tolerability study in uninfected mice by injecting GE81112A at up to 30 mg/kg, formulated in NaCl (0.9%), via intravenous (i.v.) bolus administration.
All animal studies were performed in accordance with relevant guidelines and regulations. A 30 mg/kg dose of GE81112A, formulated in 0.9% NaCl, was administered to noninfected Swiss mice (n = 3), using a single i.v. bolus. Adverse events and animal weights were monitored for 24 h after administration.

Q: With NC(=O)OC[C@@H](O)C[C@H](NC(=O)[C@H]1NCCC[C@H]1O)C(=O)N[C@@H](Cc1c[nH]cn1)C(=O)N[C@H](C(=O)O)[C@H](O)c1cnc(Cl)[nH]1 [GE81112A] as the molecule, how does the MIC (E. coli MG1655; DMEM) read?
A: Its MIC is 1 µg/mL (≈ 1.55 µM).

Q: And the MIC (E. coli MG1655; MHII)?
A: Its MIC is over 64 µg/mL.

Q: What about the MIC (E. cloacae CIP 105879; DMEM) of the same molecule?
A: Its MIC is over 64 µg/mL.

Q: And the MIC (E. cloacae CIP 105879; MHII)?
A: Its MIC is over 64 µg/mL.

Q: What about the MIC (P. mirabilis DSM4479; DMEM) of the same molecule?
A: The MIC was 64 µg/mL (≈ 99.4 µM).

Q: And the MIC (P. mirabilis DSM4479; MHII)?
A: The MIC was over 64 µg/mL.

Q: What about the MIC (E. coli ATCC BAA-2469; DMEM) of the same molecule?
A: Its MIC is over 64 µg/mL.

Q: And the MIC (E. coli ATCC BAA-2469; MHII)?
A: The MIC was over 64 µg/mL.

Q: And the MIC (C. freundii ATCC 8090; DMEM)?
A: The MIC was 32 µg/mL (≈ 49.7 µM).

Q: And the MIC (C. freundii ATCC 8090; MHII)?
A: The MIC was over 64 µg/mL.

Q: And the MIC (E. coli DSM 46345; DMEM)?
A: Its MIC is over 64 µg/mL.

Q: What about the MIC (E. coli DSM 46345; MHII) of the same molecule?
A: The MIC was over 64 µg/mL.

Q: And the MIC (E. coli ATCC BAA-2471; DMEM)?
A: Its MIC is 4 µg/mL (≈ 6.21 µM).

Q: And the MIC (E. coli ATCC BAA-2471; MHII)?
A: The MIC was over 64 µg/mL.

Q: What about the MIC ([1]; DMEM) of the same molecule?
A: The MIC was over 64 µg/mL.

Q: What about the MIC ([1]; MHII) of the same molecule?
A: The MIC was over 64 µg/mL.

Q: And the MIC (E. cloacae ATCC BAA-2468; DMEM)?
A: The MIC was over 64 µg/mL.

Q: What about the MIC (E. cloacae ATCC BAA-2468; MHII) of the same molecule?
A: The MIC was over 64 µg/mL.

Q: And the MIC ([2]; DMEM)?
A: Its MIC is over 64 µg/mL.

Q: And the MIC ([2]; MHII)?
A: The MIC was over 64 µg/mL.

Q: What about the MIC (P. stuartii ATCC 29851; DMEM) of the same molecule?
A: Its MIC is over 64 µg/mL.

Q: What about the MIC (P. stuartii ATCC 29851; MHII) of the same molecule?
A: Its MIC is over 64 µg/mL.

Q: What about the “Off-target inhibitory effects, enzyme and uptake assays” value [3] of the same molecule?
A: Its value is “no critical inhibiting effect”.

Q: And the metabolised at 1 h, 1 μM (Plasma stability; human blood plasma, 37°C, 1 h, read-out: Hydrolysis)?
A: The metabolised at 1 h, 1 μM was 3%.

Q: What about the metabolised at 4 h, 1 μM (Plasma stability; human blood plasma, 37°C, 4 h, read-out: Hydrolysis) of the same molecule?
A: The metabolised at 4 h, 1 μM was 27%.

Q: What about the Degradation (Plasma stability; mouse blood plasma) of the same molecule?
A: Its Degradation is “No degradation”.

Q: What about the Degradation (Plasma stability; rat blood plasma) of the same molecule?
A: Its Degradation is “No degradation”.

Q: And the “No observed effect concentration (NOEC)” value (HepG2 cells)?
A: Its value is 15.6 µM.

Q: And the “Tolerability (signs of toxicity or adverse effects)” value [4]?
A: Its value is “did not show any sign of toxicity or adverse effects”.
